From patent US5439930A, “Biologically active n-acylprolydipeptides having antiamnestic, antihypoxic and anorexigenic effects” (Russian-American Institute for New Drug Development, priority 1992, dated 1995)
Where a SMILES comes first, the peptide text is derived from it. The star is where a group is joined. PhAc = O=C(Cc1ccccc1)*

Tests used:
[1] = system: active avoidance learning, rats; test: Active avoidance learning in shuttle-box test; type: in vivo
From the text: (§1) The influence of Compound I on the active avoidance learning was studied in shuttle-box test (Ugo Basile, Italy). The conditioned reflex of active avoidance had been developed for 5 days with 50 daily trials for each rat. The learning task consisted in the rats' avoiding of the electric shock applied through the cage floor directly after sound. Rats could avoid the shock by moving into another compartment of the cage, but only while the sound was present (3 sec.).

[2] = system: damaged stable active avoidance reaction, rats; test: Conditional active avoidance reflex after damage (simultaneous sound and footshock); type: in vivo
From the text: as §1
In other experiments, stable active avoidance reaction was damaged by simultaneously switching of sound and electrical footshock for 5 trials. Compound I prevented the impairment of avoidance (Table 6).

[3] = system: rat's offspring damaged by prenatal alcoholization; test: Active avoidance learning of offspring after prenatal alcoholization; type: in vivo, rats
Experimental: (§2) The cognitive impairment in the rat's offspring was provoked by prenatal alcoholization or prenatal hypoxia. Prenatal alcoholization was achieved by peroral administration of 5 g/kg/day (25% solution) ethanol to pregnant female rats during whole pregnancy. To achieve prenatal hypoxia the rats on the 15th day of pregnancy were placed into hypobaric barometric chamber (the "elevating" up 8500 m altitude; exposition for 2 hours).
(§3) The treatment of the offspring was performed from 8th day to 20th day. Compound I was administered in the dose of 0.1 mg/kg/day subcutaneously. The testing was performed on two-month old rats.
(§4) It has been established that both kinds of damage (alcoholization, hypoxia) caused learning disorders in active avoidance test. Early postnatal administration of Compound I restored learning activity (Table 9).

[4] = system: rat's offspring damaged by prenatal hypoxia; test: Active avoidance learning of offspring after prenatal hypoxia; type: in vivo, rats
Experimental: as §2, §3, §4

[5] = system: rat's offspring after prenatal alcoholization; test: Open field locomotor activity and habituation of offspring after prenatal alcoholization; type: in vivo, rats
Experimental: as §2, §3
Chronic postnatal administration of Compound I restored the normal course of the habituation (Table 10).

24-month Wistar rats = test: Passive avoidance retention in aged rats; type: in vivo
Experimental: The influence of Compound I on age-related mental decline was studied in experiments on 24-month Wistar rats. The substance was administered chronically in the dose of 0.1 mg/kg/day during 24 days, intraperitoneally before the testing and 14 days during testing.
Chronic administration of Compound I facilitated the retention tested 24 hours and especially 14 days after learning in passive avoidance test (Table 11). It is evident from these experiments that Compound I is able to improve amnestic function in the old rats.

outbred albino mice = test: Hypobaric hypoxia survival (barometric chamber, 11,000 m); type: in vivo; settings: 0.5 mg/kg 15 minutes before hypoxia, 1 hour exposition
Experimental: The protective effect of Compound I in hypoxia was assessed using the barometric chamber by "elevating" of the outbred albino mice (18-22 g) to the altitude of 11,000 m at a speed of 1000 m/min. After 1 hour exposition the percentage of surviving mice after 0.9% saline pretreatment was 15%.

outbred male mice = test: Gross behavior and acute toxicity; type: in vivo
Experimental: Compound I was checked for gross behavior and acute toxicity in outbred male mice (18-22 g).
In the dose of 1000 mg/kg compound I caused excitement in 50% of animals. In the dose of 5000 mg/kg i.p. compound I caused death in 50% of animals.

[6] = system: phenazepam withdrawn male albino rats; test: Conflict situation test during phenazepam withdrawal; type: in vivo; settings: 0.5 mg/kg i.p. 15 minutes prior to testing; 24 hours after phenazepam withdrawal
Experimental: (§5) The influence of Compound I on withdrawal syndrome caused by the interruption of chronic administration of benzodiazepine tranquilizer phenazepam (T. A. Voronina et al., In Fenazepam; A. V. Bogatsky, Ed.; Naukova dumka Publishers: Kiev, 1982; pp. 67-169) was studied in experiments on male albino rats weighing 190-200 g at the beginning and 300-350 g at the end of the experiment.
(§6) Phenazepam (2 mg/kg intraperitoneally) or saline (control group of rats) were given once daily for 57 days. The withdrawal syndrome occurred 24-72 hours after the last injection. The withdrawal syndrome in rats consisted in "anxiogenic-like" state aggressiveness and accelerated development of kindled seizures caused by pentylentetrazol. Compound I was administered to the withdrawn rats in doses of 0.5 mg/kg intraperitoneally 15 minutes prior to testing.
The conflict situation test was used to reveal the "anxiety" of rats (J. R. Vogel et al., Psychopharmacologia, 21, 1-7 (1971)). This experiment involved previous training of water deprivated rats to drink water from a trough. Next day electrical stimulation was given by a 0.5 mA electric current through the trough. A conflict situation was created by clashing of the two different reflexes (drinking and self-defense).
This behavior in the conflict situation test can be considered as "anxiogenic-like" one. […]

[7] = system: phenazepam withdrawn male albino rats; test: Threshold of aggressive behavior during phenazepam withdrawal; type: in vivo; settings: 0.5 mg/kg i.p.; 24 hours after the last administration of phenazepam
Experimental: as §5, §6
The threshold of the aggressive behavior was determined in the experiment on the rats (R. Tedeshi et al., J. Pharmacol. Exp. Ther., 125, 28-34 (1959)). The paired rats were placed on the electrified floor; the strength of the current, which provokes the fighting, was registered.

[8] = day 1 of learning, 0.1 mg/kg/day s.c. from 8th to 20th day

Q: `CCOC(=O)CNC(=O)[C@@H]1CCCN1C(=O)Cc1ccccc1` [Compound I, N-phenacetyl-L-prolylglycine ethyl ester] (PhAc-Pro-Gly-OEt) was tested. Which “Percentage of the rats reached the stable avoidance” value ([1]; day 1 of learning, 0.1 mg/kg daily i.p. 14 days before and during learning) did it give?
A: Its value is 0.

Q: What about the “Percentage of the rats reached the stable avoidance” value ([1]; day 2 of learning, 0.1 mg/kg daily i.p.) of the same molecule?
A: The value was 15.

Q: What about the “Percentage of the rats reached the stable avoidance” value ([1]; day 3 of learning, 0.1 mg/kg daily i.p.) of the same molecule?
A: The value was 43.

Q: What about the “Percentage of the rats reached the stable avoidance” value ([1]; day 4 of learning, 0.1 mg/kg daily i.p.) of the same molecule?
A: The value was 57.

Q: And the “Percentage of the rats reached the stable avoidance” value ([1]; day 5 of learning, 0.1 mg/kg daily i.p.)?
A: Its value is 67.

Q: And the “Percentage of avoidances during 5 trials” value ([2]; after damage, 1-5th trials)?
A: The value was 86.7.

Q: And the “Percentage of avoidances during 5 trials” value ([2]; after damage, 6-10th trials)?
A: The value was 88.9 ± 4.8.

Q: What about the “Percentage of avoidances during 5 trials” value ([2]; after damage, 11-15th trials) of the same molecule?
A: Its value is 97.8.

Q: And the “Percentage of avoidances during 5 trials” value ([2]; before damage)?
A: The value was 88.9 ± 4.8.

Q: What about the “Rats with reflex of active avoidance” value [3, 8] of the same molecule?
A: The value was 0%.

Q: And the “Rats with reflex of active avoidance” value ([3]; day 1 of retention)?
A: The value was 78%.

Q: What about the “Rats with reflex of active avoidance” value ([3]; day 2 of learning) of the same molecule?
A: The value was 0%.

Q: What about the “Rats with reflex of active avoidance” value ([3]; day 2 of retention) of the same molecule?
A: Its value is 89%.

Q: And the “Rats with reflex of active avoidance” value ([3]; day 3 of learning)?
A: Its value is 55%.

Q: What about the “Rats with reflex of active avoidance” value ([3]; day 4 of learning) of the same molecule?
A: Its value is 82%.

Q: What about the “Rats with reflex of active avoidance” value [4, 8] of the same molecule?
A: The value was 0%.

Q: What about the “Rats with reflex of active avoidance” value ([4]; day 2 of learning) of the same molecule?
A: The value was 0%.

Q: What about the “Rats with reflex of active avoidance” value ([4]; day 3 of learning) of the same molecule?
A: The value was 25%.

Q: What about the “Rats with reflex of active avoidance” value ([4]; day 4 of learning) of the same molecule?
A: The value was 68%.

Q: And the “Rats with reflex of active avoidance” value ([4]; day 5 of learning)?
A: Its value is 88%.

Q: What about the “Number of horizontal movements” value ([5]; day 1 of observation, chronic postnatal administration) of the same molecule?
A: Its value is 8.2.

Q: What about the “Number of horizontal movements” value ([5]; day 5 of observation) of the same molecule?
A: The value was 3.7.

Q: And the “Coefficient of Habituation” value ([5]; open field)?
A: The value was 0.45.

Q: And the “Passive avoidance test (latency, sec)” value (24-month Wistar rats; 24 hours after learning)?
A: The value was 128 s.

Q: What about the “Passive avoidance test (latency, sec)” value (24-month Wistar rats; 14 days after learning) of the same molecule?
A: The value was 132 s.

Q: And the “Percentage of surviving mice” value (outbred albino mice)?
A: The value was 43.7%.

Q: What about the “Stimulating effect of amphetamine” value (outbred male mice; 25 mg/kg) of the same molecule?
A: Its value is “diminished the stimulating effect of amphetamine”.

Q: And the Rectal temperature (outbred male mice; 1-10 mg/kg i.p.)?
A: The Rectal temperature was “did not change rectal temperature”.

Q: What about the Spontaneous motor activity (outbred male mice; 1-10 mg/kg i.p.) of the same molecule?
A: The Spontaneous motor activity was “neither stimulated nor depressed the spontaneous motor activity”.

Q: And the “Stimulating effect of amphetamine on motor activity” value (outbred male mice; 1-10 mg/kg i.p.)?
A: Its value is “did not enhance the stimulating effect of amphetamine”.

Q: What about the “Excitement, % of animals” value (outbred male mice; 1000 mg/kg) of the same molecule?
A: Its value is 50%.

Q: And the “Death, % of animals” value (outbred male mice; 5000 mg/kg i.p.)?
A: The value was 50%.

Q: And the “Lethality at 24 hours” value (outbred male mice; 500-3000 mg/kg i.p.)?
A: The value was “did not cause lethality”.

Q: And the “General condition (gross behavior)” value (outbred male mice; up to the dose of 500 mg/kg)?
A: Its value is “did not disturb the general condition”.

Q: What about the “Motor coordination (rota rod test)” value (outbred male mice; up to the dose of 500 mg/kg) of the same molecule?
A: Its value is “did not change motor coordination”.

Q: And the “The amount of the Punishment Response” value [6]?
A: The value was 48.40 ± 12.39.

Q: And the “Aggression Threshold (mA)” value [7]?
A: Its value is 0.92 ± 0.1 mA.
